# Test results reported in paper PMC7534351, “Imidazothiazole-based potent inhibitors of V600E-B-RAF kinase with promising anti-melanoma activity: biological and computational studies” (Journal of Enzyme Inhibition and Medicinal Chemistry, 2020).
# Read-outs that look alike come from different tables or passages of the source.
# Key:
# [1] = target: RAF1 (Homo sapiens, UniProt P04049); assay: Cell-free kinase profiling, RAF1; type: biochemical; conditions: for inhibition at 1 µM / One-dose (1 µM) results against RAF1 (% inhibition): mean of duplicate assays ± SEM; for inhibition at 1 µM: read-out: One-dose (1 µM) results against RAF1 (% inhibition)
# Experimental: (§1) In a final volume of 25 µL, the tested kinase (5–10 mU) was incubated with 25 mM Tris pH 7.5, 0.02 mM EDTA, 0.66 mg/mL myelin basic protein, 10 mM magnesium acetate and [γ^33P-ATP] (specific activity approx. 500 cpm/pmol, concentration as required). The reaction was initiated by the addition of the Mg-ATP mix. After incubation for 40 min at room temperature, the reaction was stopped by the addition of 5 µL of a 3% phosphoric acid solution. 10 µL of the reaction was then spotted onto a P30 filtermat and washed three times for 5 min in 75 mM phosphoric acid and once in methanol before drying and scintillation counting.
# [2] = target: T1, V600E-B-RAF (Homo sapiens, UniProt P15056, V600E); assay: Cell-free kinase profiling, V600E-B-RAF; type: biochemical; conditions: for inhibition at 1 µM / One-dose (1 µM) results against V600E-B-RAF (% inhibition): mean of duplicate assays ± SEM; for inhibition at 1 µM: read-out: One-dose (1 µM) results against V600E-B-RAF (% inhibition)
# Experimental: The reaction was initiated by the addition of the Mg-ATP mix. After incubation for 40 min at room temperature, the reaction was stopped by the addition of 5 µL of a 3% phosphoric acid solution. 10 µL of the reaction was then spotted onto a P30 filtermat and washed three times for 5 min in 75 mM phosphoric acid and once in methanol before drying and scintillation counting.
# Target sequence in this assay (P15056 whole entry V600E): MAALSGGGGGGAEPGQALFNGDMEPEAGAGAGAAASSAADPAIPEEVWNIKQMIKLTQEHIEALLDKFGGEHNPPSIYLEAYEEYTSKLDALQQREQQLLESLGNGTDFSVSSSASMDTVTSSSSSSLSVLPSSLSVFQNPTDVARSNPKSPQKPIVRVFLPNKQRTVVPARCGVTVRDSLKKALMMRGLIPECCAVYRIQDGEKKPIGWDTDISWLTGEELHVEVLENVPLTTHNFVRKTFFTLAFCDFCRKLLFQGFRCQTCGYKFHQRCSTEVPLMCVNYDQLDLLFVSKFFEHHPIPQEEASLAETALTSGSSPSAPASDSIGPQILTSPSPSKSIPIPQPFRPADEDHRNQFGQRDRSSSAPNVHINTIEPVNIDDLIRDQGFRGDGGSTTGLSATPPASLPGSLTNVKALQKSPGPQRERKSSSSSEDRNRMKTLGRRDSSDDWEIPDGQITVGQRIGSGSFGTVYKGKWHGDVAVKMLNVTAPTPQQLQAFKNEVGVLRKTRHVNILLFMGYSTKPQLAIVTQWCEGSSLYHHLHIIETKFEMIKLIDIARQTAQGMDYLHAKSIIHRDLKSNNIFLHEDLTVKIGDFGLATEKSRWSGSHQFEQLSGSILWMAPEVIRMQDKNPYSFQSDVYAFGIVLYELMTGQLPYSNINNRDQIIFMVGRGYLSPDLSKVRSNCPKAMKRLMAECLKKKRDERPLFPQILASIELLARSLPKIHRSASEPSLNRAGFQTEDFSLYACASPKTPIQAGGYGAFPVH
# [3] = test system: four melanoma cell lines; assay: MTT assay, four melanoma cell lines (range); type: cell-based; conditions: range over A375, MDA-MB-435, SK-MEL-28, UACC-62; read-out: IC50 against four melanoma cell lines (range)
# Experimental: (§2) The melanoma and normal skin cell lines were maintained in DMEM including 10% foetal bovine serum (FBS) and 1% penicillin/streptomycin in a humid atmosphere containing 5% carbon dioxide at 37 °C. […] The cells were incubated for 48 h following treatment with the test compounds. The cellular viability was assessed by the conventional 3–(4,5-dimethylthiazol-2-yl)-2,5-diphenyltetrazolium bromide (MTT) reduction assay. MTT assays were carried out with CellTiter 96® (Promega) according to the manufacturer’s instructions. The absorbance at 590 nm was recorded using EnVision 2103 (Perkin Elmer; Boston, MA, USA). The IC50 values were calculated using GraphPad Prism 4.0 software. Triplicate testing was performed.
# [4] = test system: A375 melanoma cell line; assay: MTT assay, A375; type: cell-based; conditions: Homo sapiens, A-375, 48 h, mean of triplicate assays ± SEM, read-out: Antiproliferative activity (IC50 value, µM) A375
# Experimental: as §2
# [5] = test system: MDA-MB-435 melanoma cell line; assay: MTT assay, MDA-MB-435; type: cell-based; conditions: Homo sapiens, 48 h, mean of triplicate assays ± SEM, read-out: Antiproliferative activity (IC50 value, µM) MDA-MB-435
# Experimental: as §2
# [6] = test system: CCD1106K normal skin epithelial cell line; assay: MTT assay, CCD1106K normal skin cells; type: cell-based; conditions: 48 h, mean of triplicate assays ± SEM, read-out: Antiproliferative activity (IC50 value, µM) CCD1106K normal skin cells
# Experimental: as §2
# [7] = test system: UACC-62 melanoma cell line; assay: MTT assay, UACC-62; type: cell-based; conditions: Homo sapiens, 48 h, mean of triplicate assays ± SEM, read-out: Antiproliferative activity (IC50 value, µM) UACC-62
# Experimental: as §2
# [8] = test system: SK-MEL-28 melanoma cell line; assay: MTT assay, SK-MEL-28; type: cell-based; conditions: Homo sapiens, 48 h, mean of triplicate assays ± SEM, read-out: Antiproliferative activity (IC50 value, µM) SK-MEL-28
# Experimental: as §2
# [9] = target: LCK (Homo sapiens, UniProt P06239); assay: Kinase panel, LCK; type: biochemical; conditions: mean ± SEM
# Experimental: as §1
# [10] = target: ErbB2 (Homo sapiens, UniProt P04626); assay: Kinase panel, ErbB2; type: biochemical; conditions: mean ± SEM
# Experimental: as §1
# [11] = target: MEK2 (Homo sapiens, UniProt P36507); assay: Kinase panel, MEK2; type: biochemical; conditions: mean ± SEM
# Experimental: as §1
# [12] = target: PI3K-C2α (Homo sapiens, UniProt O00443); assay: Kinase panel, PI3K-C2α; type: biochemical; conditions: mean ± SEM
# Experimental: as §1
# [13] = target: B-RAF^wt (Homo sapiens, UniProt P15056); assay: Kinase panel, B-RAF wt; type: biochemical; conditions: mean ± SEM
# Experimental: as §1
# [14] = target: T1, V600E-B-RAF; assay: In-cell kinase assay (MEK1 phosphorylation ELISA in MEF-V600E-B-RAF:ER cells); type: cell-based; conditions: MEF cell line, phospho-MEK1 readout, 90 min compound incubation; read-out: in-cell V600E-B-RAF kinase inhibition IC50
# Target sequence in this assay (P15056 2-766 V600E): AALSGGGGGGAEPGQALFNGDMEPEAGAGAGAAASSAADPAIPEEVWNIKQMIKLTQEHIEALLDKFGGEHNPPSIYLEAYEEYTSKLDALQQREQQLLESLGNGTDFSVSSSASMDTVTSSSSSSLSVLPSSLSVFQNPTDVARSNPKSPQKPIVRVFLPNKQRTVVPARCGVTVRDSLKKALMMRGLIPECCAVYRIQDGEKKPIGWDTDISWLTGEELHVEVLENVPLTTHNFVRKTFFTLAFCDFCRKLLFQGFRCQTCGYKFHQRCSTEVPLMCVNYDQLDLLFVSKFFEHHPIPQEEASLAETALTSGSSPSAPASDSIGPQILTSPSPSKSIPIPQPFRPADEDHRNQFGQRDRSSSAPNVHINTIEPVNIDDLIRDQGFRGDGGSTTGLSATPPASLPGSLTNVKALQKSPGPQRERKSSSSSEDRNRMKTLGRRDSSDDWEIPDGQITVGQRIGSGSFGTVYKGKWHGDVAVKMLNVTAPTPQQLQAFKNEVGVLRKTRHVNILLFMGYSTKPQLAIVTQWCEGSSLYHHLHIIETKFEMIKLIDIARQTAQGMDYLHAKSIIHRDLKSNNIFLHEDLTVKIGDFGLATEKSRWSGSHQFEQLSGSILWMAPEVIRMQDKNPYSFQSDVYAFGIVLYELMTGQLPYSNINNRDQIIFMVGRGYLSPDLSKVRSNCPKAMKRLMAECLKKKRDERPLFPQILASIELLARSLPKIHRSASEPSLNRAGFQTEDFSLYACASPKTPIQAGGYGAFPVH
# Experimental: MEF-V600E-B-RAF:ER cells were plated in Dulbecco’s modified eagle medium (DMEM) supplemented with 10% FCS in multiwell cell culture plates. Compound incubation (90 min at 37 °C) was done in serum-free medium. […] For stimulation, cells were treated with 1 µM hydroxytamoxifen for 1 h at room temperature. After cell lysis, quantification of MEK1 phosphorylation was assessed in 96-well plates via sandwich-ELISA using a MEK1 specific capture antibody and a phospho-MEK1-Ser218/222 specific detection antibody.
# [15] = target: JAK2 (Homo sapiens, UniProt O60674); assay: Kinase panel, JAK2; type: biochemical; conditions: mean ± SEM
# Experimental: as §1
# [16] = target: Aurora-A (Homo sapiens, UniProt O14965); assay: Kinase panel, Aurora-A; type: biochemical; conditions: mean ± SEM
# Experimental: as §1
# [17] = target: ROS (Homo sapiens, UniProt P08922); assay: Kinase panel, ROS; type: biochemical; conditions: mean ± SEM
# Experimental: as §1
# [18] = target: MEK1 (Homo sapiens, UniProt Q02750); assay: Kinase panel, MEK1; type: biochemical; conditions: mean ± SEM
# Experimental: as §1
# [19] = test system: 30-kinase panel; assay: 30-kinase panel as a whole; type: biochemical; conditions: 1 µM; all panel kinases apart from V600E-B-RAF and FLT3
# Experimental: as §1
# [20] = target: ABL (Homo sapiens, UniProt P00519); assay: Kinase panel, ABL; type: biochemical; conditions: mean ± SEM
# Experimental: as §1
# [21] = target: FMS (Homo sapiens, UniProt P07333); assay: Kinase panel, FMS; type: biochemical; conditions: mean ± SEM
# Experimental: as §1
# [22] = target: VRK1 (Homo sapiens, UniProt Q99986); assay: Kinase panel, VRK1; type: biochemical; conditions: mean ± SEM
# Experimental: as §1
# [23] = target: EGFR (Homo sapiens, UniProt P00533); assay: Kinase panel, EGFR; type: biochemical; conditions: mean ± SEM
# Experimental: as §1
# [24] = target: mTOR (Homo sapiens, UniProt P42345); assay: Kinase panel, mTOR; type: biochemical; conditions: mean ± SEM
# Experimental: as §1
# [25] = target: ALK (Homo sapiens, UniProt Q9UM73); assay: Kinase panel, ALK; type: biochemical; conditions: mean ± SEM
# Experimental: as §1
# [26] = target: DMPK (Homo sapiens, UniProt Q09013); assay: Kinase panel, DMPK; type: biochemical; conditions: mean ± SEM
# Experimental: as §1
# [27] = target: A-RAF (Homo sapiens, UniProt P10398); assay: Kinase panel, A-RAF; type: biochemical; conditions: mean ± SEM
# Experimental: as §1
# [28] = target: cKIT (Homo sapiens, UniProt P10721); assay: Kinase panel, cKIT; type: biochemical; conditions: mean ± SEM
# Experimental: as §1
# [29] = target: PI3Kα (Homo sapiens, UniProt P42336); assay: Kinase panel, PI3Kα; type: biochemical; conditions: mean ± SEM
# Experimental: as §1
# [30] = target: TRKA (Homo sapiens, UniProt P04629); assay: Kinase panel, TRKA; type: biochemical; conditions: mean ± SEM
# Experimental: as §1
# [31] = target: FLT3 (Homo sapiens, UniProt P36888); assay: Kinase panel, FLT3; type: biochemical
# Experimental: as §1
# [32] = target: BTK (Homo sapiens, UniProt Q06187); assay: Kinase panel, BTK; type: biochemical; conditions: mean ± SEM
# Experimental: as §1
# [33] = target: JNK1(α1) (Homo sapiens, UniProt P45983); assay: Kinase panel, JNK1(α1); type: biochemical; conditions: mean ± SEM
# Experimental: as §1
# [34] = target: ErbB4 (Homo sapiens, UniProt Q15303); assay: Kinase panel, ErbB4; type: biochemical; conditions: mean ± SEM
# Experimental: as §1
# [35] = target: KDR (Homo sapiens, UniProt P35968); assay: Kinase panel, KDR; type: biochemical; conditions: mean ± SEM
# Experimental: as §1
# [36] = target: JAK1 (Homo sapiens, UniProt P23458); assay: Kinase panel, JAK1; type: biochemical; conditions: mean ± SEM
# Experimental: as §1
# [37] = target: PDGFRβ (Homo sapiens, UniProt P09619); assay: Kinase panel, PDGFRβ; type: biochemical; conditions: mean ± SEM
# Experimental: as §1
# [38] = 10-dose mode, read-out: IC50 value (nM) against RAF1
# [39] = from the IC50 values of Table 1, used for QSAR
# [40] = 10-dose mode, read-out: IC50 value (nM) against V600E-B-RAF
# Sequence of RAF1 (P04049 whole entry): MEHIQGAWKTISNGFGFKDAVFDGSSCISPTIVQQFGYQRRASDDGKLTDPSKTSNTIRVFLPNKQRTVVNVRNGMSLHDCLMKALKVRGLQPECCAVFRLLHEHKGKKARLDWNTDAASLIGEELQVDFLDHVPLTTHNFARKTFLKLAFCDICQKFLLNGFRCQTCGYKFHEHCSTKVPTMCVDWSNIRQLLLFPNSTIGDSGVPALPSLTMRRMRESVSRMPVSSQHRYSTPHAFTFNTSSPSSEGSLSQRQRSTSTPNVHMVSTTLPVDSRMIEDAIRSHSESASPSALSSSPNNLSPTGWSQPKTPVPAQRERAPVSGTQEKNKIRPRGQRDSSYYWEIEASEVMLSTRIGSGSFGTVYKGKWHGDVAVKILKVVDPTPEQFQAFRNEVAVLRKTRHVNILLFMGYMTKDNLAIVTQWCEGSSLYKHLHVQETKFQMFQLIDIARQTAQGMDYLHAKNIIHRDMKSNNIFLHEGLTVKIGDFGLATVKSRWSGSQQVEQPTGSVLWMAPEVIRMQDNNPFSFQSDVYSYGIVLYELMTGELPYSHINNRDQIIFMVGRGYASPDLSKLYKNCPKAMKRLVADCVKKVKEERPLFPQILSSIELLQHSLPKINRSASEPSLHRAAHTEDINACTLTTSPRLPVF
# Sequence of FLT3 (P36888 27-993, species assumed): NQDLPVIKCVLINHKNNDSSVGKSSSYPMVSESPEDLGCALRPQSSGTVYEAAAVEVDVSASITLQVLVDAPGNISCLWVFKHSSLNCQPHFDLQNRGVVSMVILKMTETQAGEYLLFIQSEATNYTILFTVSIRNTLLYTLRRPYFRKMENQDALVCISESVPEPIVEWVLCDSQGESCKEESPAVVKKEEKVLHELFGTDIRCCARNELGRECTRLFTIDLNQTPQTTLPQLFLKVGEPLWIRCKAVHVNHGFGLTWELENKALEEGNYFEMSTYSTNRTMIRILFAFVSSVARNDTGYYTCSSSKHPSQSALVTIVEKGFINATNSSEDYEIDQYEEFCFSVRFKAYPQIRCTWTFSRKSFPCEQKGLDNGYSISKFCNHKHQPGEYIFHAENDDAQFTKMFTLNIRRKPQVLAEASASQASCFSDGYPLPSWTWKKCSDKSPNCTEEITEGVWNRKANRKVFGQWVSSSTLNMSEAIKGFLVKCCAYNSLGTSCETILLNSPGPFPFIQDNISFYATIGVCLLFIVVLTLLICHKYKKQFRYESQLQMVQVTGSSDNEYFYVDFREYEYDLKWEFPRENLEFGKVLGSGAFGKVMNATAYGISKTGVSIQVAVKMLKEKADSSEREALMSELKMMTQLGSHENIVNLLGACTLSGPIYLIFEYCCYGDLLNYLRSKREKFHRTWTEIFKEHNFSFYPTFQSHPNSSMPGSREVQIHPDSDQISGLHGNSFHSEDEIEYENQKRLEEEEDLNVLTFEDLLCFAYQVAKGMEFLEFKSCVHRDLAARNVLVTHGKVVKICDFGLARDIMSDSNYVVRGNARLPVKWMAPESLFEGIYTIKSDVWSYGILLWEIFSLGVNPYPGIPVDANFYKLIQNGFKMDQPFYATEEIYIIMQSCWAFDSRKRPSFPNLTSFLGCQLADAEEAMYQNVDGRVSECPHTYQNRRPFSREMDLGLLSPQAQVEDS
# Sequence of PI3K-C2α (O00443 whole entry): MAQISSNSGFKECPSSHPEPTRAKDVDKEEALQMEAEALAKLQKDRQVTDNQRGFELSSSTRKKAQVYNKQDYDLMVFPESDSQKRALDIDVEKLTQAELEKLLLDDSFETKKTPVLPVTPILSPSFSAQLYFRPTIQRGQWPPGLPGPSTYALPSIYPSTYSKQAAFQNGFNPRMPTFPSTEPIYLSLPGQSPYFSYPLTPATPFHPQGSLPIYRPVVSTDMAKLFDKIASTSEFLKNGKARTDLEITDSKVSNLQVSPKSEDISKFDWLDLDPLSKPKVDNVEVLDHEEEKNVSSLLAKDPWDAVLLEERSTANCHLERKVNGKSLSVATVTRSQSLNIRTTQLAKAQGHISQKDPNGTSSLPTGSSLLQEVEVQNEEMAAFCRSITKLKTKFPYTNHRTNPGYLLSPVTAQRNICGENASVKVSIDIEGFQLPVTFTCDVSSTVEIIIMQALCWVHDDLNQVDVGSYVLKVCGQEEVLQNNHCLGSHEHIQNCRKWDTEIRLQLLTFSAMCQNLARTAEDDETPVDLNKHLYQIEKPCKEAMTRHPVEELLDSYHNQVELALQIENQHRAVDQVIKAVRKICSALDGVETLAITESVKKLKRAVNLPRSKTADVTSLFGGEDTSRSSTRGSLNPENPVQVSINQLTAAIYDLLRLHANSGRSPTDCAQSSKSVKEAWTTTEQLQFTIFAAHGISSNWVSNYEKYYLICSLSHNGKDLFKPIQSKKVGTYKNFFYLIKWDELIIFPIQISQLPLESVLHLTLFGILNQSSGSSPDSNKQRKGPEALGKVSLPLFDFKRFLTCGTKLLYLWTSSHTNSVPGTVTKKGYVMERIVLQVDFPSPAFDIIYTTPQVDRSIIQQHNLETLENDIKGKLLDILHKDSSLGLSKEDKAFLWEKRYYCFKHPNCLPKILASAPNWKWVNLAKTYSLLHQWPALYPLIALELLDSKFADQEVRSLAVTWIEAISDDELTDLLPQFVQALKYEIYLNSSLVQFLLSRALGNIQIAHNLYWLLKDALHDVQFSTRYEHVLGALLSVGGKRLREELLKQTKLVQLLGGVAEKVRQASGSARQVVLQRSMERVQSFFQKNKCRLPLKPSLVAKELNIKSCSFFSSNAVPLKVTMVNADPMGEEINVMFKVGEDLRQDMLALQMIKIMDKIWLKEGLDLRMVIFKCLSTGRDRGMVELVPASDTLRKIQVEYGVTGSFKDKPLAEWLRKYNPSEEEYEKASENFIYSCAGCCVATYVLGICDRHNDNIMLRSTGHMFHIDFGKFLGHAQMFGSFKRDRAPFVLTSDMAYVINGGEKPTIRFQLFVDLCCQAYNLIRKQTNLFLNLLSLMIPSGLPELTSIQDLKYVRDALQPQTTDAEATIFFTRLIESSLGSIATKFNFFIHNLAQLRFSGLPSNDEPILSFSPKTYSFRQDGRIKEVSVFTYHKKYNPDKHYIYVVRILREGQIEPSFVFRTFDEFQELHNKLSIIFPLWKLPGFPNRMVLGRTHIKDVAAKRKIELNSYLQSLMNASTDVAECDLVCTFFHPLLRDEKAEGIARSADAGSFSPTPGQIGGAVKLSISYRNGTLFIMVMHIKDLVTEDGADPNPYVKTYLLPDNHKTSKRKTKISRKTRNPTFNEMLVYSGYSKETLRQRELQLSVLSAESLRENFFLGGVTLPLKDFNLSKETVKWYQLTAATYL
# Sequence of B-RAF^wt (P15056 whole entry): as the sequence (P15056 whole entry V600E) above, with E600V counted along it
smiles,measurement,setting,value
O=C(NCCNc1nccc(-c2c(-c3cccc(O)c3)nc3sccn23)n1)c1ccc(N2CCOCC2)c(C(F)(F)F)c1 [Compound 1zg],inhibition at 1 µM,[1],90.8%
same,IC50,[1]; [38],158 nM
same,inhibition at 1 µM,[2],99%
same,IC50,"[2]; from the IC50 values of Table 1, used for QSAR, read-out: pIC50 (V600E- B-RAF) (converted)",15.8 nM
"CNC(=O)c1cc(Oc2ccc(NC(=O)Nc3ccc(Cl)c(C(F)(F)F)c3)cc2)ccn1 [Sorafenib, sorafenib, reference compound]",IC50,[3],1950 to 5450 nM
same,IC50,[4],5.45 ± 0.53 µM
same,IC50,[5],3.16 ± 0.2 µM
same,IC50,[6],11.6 ± 0.46 µM
same,IC50,[7],1.95 ± 0.08 µM
O=C(NCCNc1nccc(-c2c(-c3cccc(O)c3)nc3sccn23)n1)c1ccccc1O [Compound 1zc],One-dose (1 µM) results against RAF1 (% inhibition),[1],99.32% ± 0.23%
same,IC50,[1]; [38],10.5 nM
same,pIC50 (RAF1),[1]; [39],7.979
same,One-dose (1 µM) results against V600E-B-RAF (% inhibition),[2],101.07% ± 1.53%
same,IC50,[2]; [40],1.9 nM
same,pIC50 (V600E- B-RAF),[2]; [39],8.721
COc1cccc(-c2nc3sccn3c2-c2ccnc(NCCNC(=O)c3ccccc3)n2)c1 [Compound 1u],One-dose (1 µM) results against RAF1 (% inhibition),[1],74.00% ± 0.64%
same,One-dose (1 µM) results against V600E-B-RAF (% inhibition),[2],95.03% ± 0.66%
same,IC50,[2]; [40],45.1 nM
same,pIC50 (V600E- B-RAF),[2]; [39],7.346
O=C(NCCNc1nccc(-c2c(-c3cccc(O)c3)nc3sccn23)n1)c1ccccc1 [Compound 1zb],IC50,[8],0.38 ± 0.05 µM
same,inhibition at 1 µM,[9],12.4%
same,inhibition at 1 µM,[10],2.17%
same,inhibition at 1 µM,[11],26.6%
same,inhibition at 1 µM,[12],50%
same,inhibition at 1 µM,[13],23.4%
same,IC50,[14],190 nM
same,inhibition at 1 µM,[15],3.76%
same,inhibition at 1 µM,[16],49.8%
same,inhibition at 1 µM,[17],2.02%
same,IC50,[3],180 to 590 nM
same,inhibition at 1 µM,[18],1.5%
same,IC50,[4],0.46 ± 0.03 µM
same,inhibitory effect against all the other kinases of the panel,[19],less than 50%
same,inhibition at 1 µM,[20],7.57%
same,inhibition at 1 µM,[21],12.2%
same,inhibition at 1 µM,[22],3.93%
same,inhibition at 1 µM,[23],19.9%
same,inhibition at 1 µM,[24],7.83%
same,IC50,[5],0.59 ± 0.06 µM
same,IC50,[6],9.26 ± 0.38 µM
same,inhibition at 1 µM,[25],41.2%
same,inhibition at 1 µM,[26],0.84%
same,inhibition at 1 µM,[27],9.14%
same,inhibition at 1 µM,[28],9.63%
same,inhibition at 1 µM,[29],5.85%
same,IC50,[7],0.18 ± 0.02 µM
same,inhibition at 1 µM,[30],46.7%
same,inhibition at 1 µM,"[31]; 1 µM, mean ± SEM",73.1%
same,IC50,[31]; read-out: IC50 (nM) against FLT3,838 nM
same,inhibition at 1 µM,[32],17%
same,inhibition at 1 µM,[33],0.76%
same,inhibition at 1 µM,[34],13.7%
same,inhibition at 1 µM,[1],99.4%
same,IC50,"[1]; from the IC50 values of Table 1, used for QSAR, read-out: pIC50 (RAF1) (converted)",8.2 nM
same,inhibition at 1 µM,[35],18.8%
same,inhibition at 1 µM,[36],-0.26%
same,inhibition at 1 µM,[2],99.5%
same,IC50,[2]; [40],0.978 nM
same,inhibition at 1 µM,[37],12.5%
COc1cccc(-c2nc3sccn3c2-c2ccnc(NCCNC(=O)c3ccccc3O)n2)c1 [Compound 1v],One-dose (1 µM) results against RAF1 (% inhibition),[1],59.25% ± 2.53%
same,One-dose (1 µM) results against V600E-B-RAF (% inhibition),[2],90.82% ± 0.25%
same,IC50,[2]; [40],100 nM
same,pIC50 (V600E- B-RAF),[2]; [39],7.000
